Experiments:
SK-BR-3 = assay: Anticancer activity against human SK-BR-3 cells assessed as cell growth inhibition incubated for 72 hrs by SRB assay; assay type: functional, cell-based; settings: Homo sapiens, SK-BR-3, 72 h
PC-3 = assay: Anticancer activity against human PC-3 cells assessed as cell growth inhibition incubated for 72 hrs by SRB assay; assay type: functional, cell-based; settings: Homo sapiens, PC-3, 72 h
SK-OV-3 = assay: Anticancer activity against human SK-OV-3 cells assessed as cell growth inhibition incubated for 72 hrs by SRB assay; assay type: functional, cell-based; settings: Homo sapiens, SK-OV-3, 72 h
[1] = molecular target: Heat shock protein HSP 90-alpha (Homo sapiens) (UniProt P07900)
Description: Binding affinity to recombinant human HSP90alpha assessed as change in entropy by isothermal titration calorimetry assay

[2] = Cytotoxicity against human HDF cells assessed as cell growth inhibition incubated for 72 hrs by SRB assay; assay type: toxicity, cell-based; settings: HDF cells (normal human dermal fibroblasts, NHDF)
[3] = Selectivity index, ratio of IC50 for cytotoxicity against human HDF cells to IC50 for anticancer activity against human PC-3 cells; assay type: toxicity, cell-based; settings: HDF cells versus PC-3 cells, read-out: Ratio IC50
[4] = Selectivity index, ratio of IC50 for cytotoxicity against human HDF cells to IC50 for anticancer activity against human SK-OV-3 cells; assay type: cell-based; settings: HDF cells versus SK-OV-3 cells, read-out: Ratio IC50
[5] = Selectivity index, ratio of IC50 for cytotoxicity against human HDF cells to IC50 for anticancer activity against human SK-BR-3 cells; assay type: toxicity, cell-based; settings: HDF cells versus SK-BR-3 cells, read-out: Ratio IC50

Structure (SMILES)	IC50 (SK-BR-3) [nM]	IC50 (PC-3) [nM]	IC50 (SK-OV-3) [nM]	TdeltaS [1] [kJ/mol]	IC50 at 72 h [2] [nM]	selectivity ratio [3]	selectivity ratio [4]	selectivity ratio [5]
CO[C@H]1/C=C\C=C(/C)C(=O)NC2=CC(=O)C(NCc3cn(CCCOS(=O)(=O)c4ccc(C)cc4)nn3)=C(C[C@@H](C)C[C@H](OC)[C@H](O)[C@@H](C)/C=C(\C)[C@@H]1OC(N)=O)C2=O	440	460	450	5.9	440	–	–	–
CO[C@H]1/C=C\C=C(/C)C(=O)NC2=CC(=O)C(NCc3cn(C/C=C/c4ccccc4)nn3)=C(C[C@@H](C)C[C@H](OC)[C@H](O)[C@@H](C)/C=C(\C)[C@@H]1OC(N)=O)C2=O	1160	1110	1080	-3.7	3380	–	–	–
CO[C@H]1/C=C\C=C(/C)C(=O)NC2=CC(=O)C(NCc3cn(Cc4ccc(Cl)cc4)nn3)=C(C[C@@H](C)C[C@H](OC)[C@H](O)[C@@H](C)/C=C(\C)[C@@H]1OC(N)=O)C2=O	240	230	230	-3.6	440	–	–	–
CO[C@H]1/C=C\C=C(/C)C(=O)NC2=CC(=O)C(NCc3c[nH]nn3)=C(C[C@@H](C)C[C@H](OC)[C@H](O)[C@@H](C)/C=C(\C)[C@@H]1OC(N)=O)C2=O	730	690	690	–	1770	2.57	2.57	2.42
CO[C@H]1/C=C\C=C(/C)C(=O)NC2=CC(=O)C(NCc3cn(Cc4ccc(C)cc4)nn3)=C(C[C@@H](C)C[C@H](OC)[C@H](O)[C@@H](C)/C=C(\C)[C@@H]1OC(N)=O)C2=O	990	850	820	–	1170	1.38	1.43	1.18
CO[C@H]1/C=C\C=C(/C)C(=O)NC2=CC(=O)C(NCc3cn([C@@H]4O[C@H](COCc5ccccc5)[C@@H](OCc5ccccc5)[C@H](OCc5ccccc5)[C@H]4NC(C)=O)nn3)=C(C[C@@H](C)C[C@H](OC)[C@H](O)[C@@H](C)/C=C(\C)[C@@H]1OC(N)=O)C2=O	770	930	790	–	1510	1.62	1.91	1.96
CO[C@H]1/C=C\C=C(/C)C(=O)NC2=CC(=O)C(NCc3cn(CC4OCCO4)nn3)=C(C[C@@H](C)C[C@H](OC)[C@H](O)[C@@H](C)/C=C(\C)[C@@H]1OC(N)=O)C2=O	1790	1770	1730	–	3060	1.73	1.77	1.71
CO[C@H]1/C=C\C=C(/C)C(=O)NC2=CC(=O)C(NCc3cn(Cc4ccccc4I)nn3)=C(C[C@@H](C)C[C@H](OC)[C@H](O)[C@@H](C)/C=C(\C)[C@@H]1OC(N)=O)C2=O	380	410	390	–	970	2.37	2.49	2.55
CO[C@H]1/C=C\C=C(/C)C(=O)NC2=CC(=O)C(NCc3cn(CCN4C(=O)c5ccccc5C4=O)nn3)=C(C[C@@H](C)C[C@H](OC)[C@H](O)[C@@H](C)/C=C(\C)[C@@H]1OC(N)=O)C2=O	1220	1290	1280	–	1960	1.52	1.53	1.61
CO[C@H]1/C=C\C=C(/C)C(=O)NC2=CC(=O)C(NCc3cn([C@@H]4O[C@H](CO)[C@@H](O)[C@H](O)[C@H]4O)nn3)=C(C[C@@H](C)C[C@H](OC)[C@H](O)[C@@H](C)/C=C(\C)[C@@H]1OC(N)=O)C2=O	740	600	540	–	1010	1.68	1.87	1.36
CO[C@H]1/C=C\C=C(/C)C(=O)NC2=CC(=O)C(NCc3cn([C@@H]4O[C@H](CO)[C@H](O)[C@H](O)[C@H]4O)nn3)=C(C[C@@H](C)C[C@H](OC)[C@H](O)[C@@H](C)/C=C(\C)[C@@H]1OC(N)=O)C2=O	570	540	530	–	990	1.83	1.87	1.74
CO[C@H]1/C=C\C=C(/C)C(=O)NC2=CC(=O)C(NCc3cn([C@@H]4OC[C@@H](OC(C)=O)[C@H](OC(C)=O)[C@H]4OC(C)=O)nn3)=C(C[C@@H](C)C[C@H](OC)[C@H](O)[C@@H](C)/C=C(\C)[C@@H]1OC(N)=O)C2=O	4360	3520	3730	–	4590	1.3	1.23	1.05
CCN(CC)CCn1cc(CNC2=C3C[C@@H](C)C[C@H](OC)[C@H](O)[C@@H](C)/C=C(\C)[C@H](OC(N)=O)[C@@H](OC)/C=C\C=C(/C)C(=O)NC(=CC2=O)C3=O)nn1	590	510	520	–	960	1.88	1.85	1.63
CO[C@H]1/C=C\C=C(/C)C(=O)NC2=CC(=O)C(NCc3cn(Cc4ccc(C(F)(F)F)cc4)nn3)=C(C[C@@H](C)C[C@H](OC)[C@H](O)[C@@H](C)/C=C(\C)[C@@H]1OC(N)=O)C2=O	790	800	910	–	1240	1.55	1.36	1.57
CO[C@H]1/C=C\C=C(/C)C(=O)NC2=CC(=O)C(NCCn3cc(-c4ccccn4)nn3)=C(C[C@@H](C)C[C@H](OC)[C@H](O)[C@@H](C)/C=C(\C)[C@@H]1OC(N)=O)C2=O	1160	1210	1300	–	2410	1.99	1.85	2.08
CO[C@H]1/C=C\C=C(/C)C(=O)NC2=CC(=O)C(NCc3cn([C@@H]4O[C@H](CO)[C@@H](O[C@@H]5O[C@H](CO)[C@H](O)[C@H](O)[C@H]5O)[C@H](O)[C@H]4O)nn3)=C(C[C@@H](C)C[C@H](OC)[C@H](O)[C@@H](C)/C=C(\C)[C@@H]1OC(N)=O)C2=O	2850	2830	2840	–	4110	1.45	1.45	1.44
